Data taken from patent US20160166701A1, “DELIVERY COMPOSITION FOR TOPICAL APPLICATIONS AND INJECTIONS AND OPHTHALMIC FORMULATIONS, METHODS FOR MANUFACTURING THEREOF, AND METHODS FOR DELIVERY OF A DRUG-DELIVERY COMPOSITION” (THERAKINE BIODELIVERY GMBH, priority 2013, published 2016).

How the values were obtained:
[1] = test system: rabbits undergoing photorefractive keratectomy (PRK) surgery; test: Rabbit PRK study of canakinumab incorporated in the matrix formulation (Example 3); assay type: in vivo
Method: In Example 3, a further rabbit study, similar to the design of Example 2 above, was performed using Novartis's canakinumab, a fully human antibody against Il-1 beta, incorporated in the matrix formulation using hyaluronic acid microparticles enhancing corneal adherence.
Even though it is described that canakinumab does differ from rabbit IL-1 in one amino acid, this study was performed to study the adherence characteristics, pk, and safety/tolerability of EpiKine delivering a different Il-1 inhibitor.

[2] = test system: freshly isolated and subcultured corneal fibroblasts; test: α-SMA positive corneal fibroblasts in normal or serum-free media, confocal microscopy on day 4 (Example 4); assay type: cell-based, rabbit; conditions: serum-free media, 30 μg/mL, both subcultured and freshly isolated cells
Method: Since there is a variable amount of growth factors such as IL-1 in serum, the presence of serum may offset the effect of blocking IL-1 with the matrix formulation. In this experiment, freshly isolated and subcultured corneal fibroblasts (P2-P5) were seeded at a density of 5,000 cells/cm^2 and cultured with 30 μg/mL with human recombinant IL-1ra in either normal (NM) or Serum-Free (SF) media. Cells were analyzed on day 4 for levels of α-SMA with confocal microscopy. Cell numbers in serum-free samples were too low to recover enough protein for Western Blot analysis. 5 individuals independently counted 3 images of each of 3 samples per condition for α-SMA positive cells. Serum-free media induced lower α-SMA expression in freshly isolated cells but had no effect on subcultured cells. […] This finding supports that the phenotype of subcultured cells can be influenced by the matrix formulation.
Percentage of freshly isolated (FI) and subcultured (SC) RCFs expressing α-SMA as determined from confocal immunofluorescence on day 4 in the following conditions: normal media (NM), normal media with IL-1ra (NM+IL-1ra), serum-free (SF), and serum-free with IL-1ra (SF+IL-1ra). SF conditions decreased α-SMA levels in FI but not in SC cells. […] Data represents mean+/−standard error with n=3 (* indicate p<<0.001, θ indicate p<0.05, φ indicate p<0.005).

[3] = test system: rabbits undergoing photorefractive keratectomy (PRK) surgery; test: Rabbit photorefractive keratectomy (PRK) study of matrix formulation with IL-1ra versus steroid control (Example 2); assay type: in vivo; conditions: lower doses of IL-1ra and steroid group compared with higher dose of IL-1ra and control group, week 3; FIG. 6
Method: In Example 2; various concentrations of IL-1ra, i.e. 50 mg/ml or 2.5 mg/drop, 25 mg/ml or 1.25 mg/drop, and 5 mg/ml or 0.25 mg/drop (solutions A-C), were compared to a standard steroid control (fluorometholone) in rabbits undergoing photorefractive keratectomy (PRK) surgery. […] The final hyaluronic acid concentration (i.e. the hyaluronic acid concentration in the final matrix formulation) was 0.526% w/w, based on the total weight of the matrix formulation.
Each rabbit received PRK in both eyes at a 100 μm ablation depth. In each rabbit, the right eye (OD) served as the treated eye while the left eye (OS) served as control. […]
As before corneal clarity, forward scatter and haze measurement were used as out-come parameters. Haze formation and scattering was assessed via slit lamp exam by an ophthalmologist. The timing for re-epithelization to occur in both the treatment and control groups was measured.
In addition Pentacam technology was used to image the anterior segment of the eye via a rotating Scheimpflug process that supplied pictures in three dimensions, allowing for a precise measurement of the shape, thickness, and the contour of the cornea. Using this method, the center of the cornea, which is most critical for refractive surgery planning, is measured precisely because of this rotational imaging process. […]

[4] = test system: rabbits following photorefractive keratectomy (PRK); conditions: rabbit, in vivo; cited from earlier work
[5] = every data point, not statistically significant

Compound | epithelial closure ([1]; 1.25 mg concentration, within the canakinumab concentrations) | foam layer thickness (histologic analysis) ([1]; 2.5 mg and 1.25 mg concentration compared to 0.25 mg concentration) | objective haze (Pentacam) densitometry values ([1]; 2.5 mg concentration group, each time point) | corneal haze ([1]; 2.5 mg concentration, almost all data points, not statistically significant) | subjective haze (slit lamp exam) ([1]; 2.5 mg concentration, within the canakinumab concentrations) | objective haze (HRT stromal haze) ([1]; 2.5 mg, compared to control, week 2) | epithelial closure ([1]; all concentrations, compared to steroid and control group, not statistically significant) | adverse events ([1]; any of the concentrations, preliminary results) | subjective haze (slit lamp exam) ([1]; compared to the control group) | objective haze (HRT stromal haze) [1, 5] | safety compared to steroids ([1]; time frame administered in this study) | subjective haze (slit lamp exam) ([1]; weeks 2, 4, 5, not statistically significant) | α-SMA expression [2] | Pentacam density measurements [3] | serious adverse events such as infections or worsening infections [4]
canakinumab | trend for faster closure | thinner foam layers | trend for lower densitometry values | trend towards lower corneal haze | trend for lower subjective haze values | statistically significant less haze | took longer to heal | No adverse events | as effective as steroids | less haze than the control group | non-inferior to steroids | lower haze | – | – | –
IL-1ra: IL-1ra is a biologic agent (protein) that blocks IL-1 | – | – | – | – | – | – | – | – | – | – | – | – | significantly decreased | statistically significant difference | No serious adverse events
CC(=O)[C@@]1(O)CC[C@H]2[C@@H]3C[C@H](C)C4=CC(=O)C=C[C@]4(C)[C@@]3(F)[C@@H](O)C[C@@]21C [Steroids, fluorometholone, reference compound] | – | – | – | – | – | – | – | – | – | least haze | – | – | – | – | –
